Results: patent US20020137929A1, “1 - (3-heterocyclylphenyl) isothiourea, -isourea, -guanidine and -amidine herbicidal agents” (Intellectual Property Department, BASF Aktiengesellschaft, priority 1998, published 2002)

Columns and labels:
ZEAMX (Corn, Field) = assay: Preemergence herbicidal evaluation; format: in vivo, Zea mays; conditions: rated 4-5 weeks after treatment
Method in brief: (§1)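 Sown cups got a single aqueous acetone spray of test compound (roughly 0.0156–0.500 kg/ha) before seedlings emerged. Evaluation, 4–5 weeks on, used a 0–9 visual scale covering plant stand, vigor, size, malformation, chlorosis and general appearance compared with controls.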

ECHCG (Barnyardgrass) = assay: Preemergence herbicidal evaluation; format: in vivo, Echinochloa crus-galli; conditions: rated 4-5 weeks after treatment
Method in brief: as §1

[1] = tested on: SAGPY (Arrowhead (Pygmaea)); assay: Postemergence weed control under flooded paddy conditions; format: in vivo, Sagittaria pygmaea; conditions: postemergence weeds, rated 3 to 4 weeks after treatment
Method in brief: (§2)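 Flood-water application, about 0.0313–0.500 kg/ha a.i. in aqueous/acetone 50/50 v/v; water depth 1.5–3 cm throughout. Weeds 3–5 cm, rice 1.5–2.5 leaf. Greenhouse; 0–9 visual rating vs control at 3–4 wk.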

[2] = tested on: ECHORC (Watergrass (Calif.)); assay: as above; format: in vivo, Echinochloa oryzoides; conditions: postemergence weeds, rated 3 to 4 weeks after treatment
Method in brief: as §2

SETVI (Foxtail, Green) [3] = assay: Preemergence herbicidal evaluation; format: in vivo, Setaria viridis; conditions: rated 4-5 weeks after treatment
Method in brief: as §1

MOOVA (Monochoria) = assay: Preemergence weed control under flooded paddy conditions; format: in vivo, Monochoria vaginalis; conditions: rated 3-4 weeks after treatment
Method in brief: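 Ratings on a 0-9 visual scale cover stand, vigor, malformation, size, chlorosis and overall appearance relative to a control, taken three to four weeks post-treatment. Application was into flood water over freshly sown silt loam at roughly 0.0313 to 0.500 kg/ha.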

CYPIR (Rice Flatsedge) = assay: as above; format: in vivo, Cyperus iria; conditions: rated 3-4 weeks after treatment
Method in brief: (§3)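 Herbicidal effect is scored visually on a 0-9 scale against an untreated control, three to four weeks after compounds are pipetted into the flood water (1.5 to 3 cm deep) over seeds planted in silt loam at 0.5 cm depth. Rates: about 0.0313 to 0.500 kg/ha.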

SETVI (Foxtail, Green) [4] = assay: Postemergence herbicidal evaluation; format: in vivo, Setaria viridis; conditions: postemergence
Method in brief: (§4)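 Rate range approx. 0.0156–0.500 kg/ha. Foliar application at 40 psi to ~2-week seedlings; surfactant 0.5% TWEEN 20 in 50/50 acetone/water. Evaluation 4–5 wk post-treatment by 0–9 visual injury score, means of replicate tests.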

ABUTH (Velvetleaf) = assay: Preemergence herbicidal evaluation; format: in vivo, Abutilon theophrasti; conditions: rated 4-5 weeks after treatment
Method in brief: as §1

[5] = tested on: IPOHE (Morningglory, Ivyleaf); assay: Preemergence herbicidal evaluation; format: in vivo, Ipomoea hederacea; conditions: rated 4-5 weeks after treatment
Method in brief: as §1

[6] = tested on: TRZAWR (Wheat, Winter, cv Riband); assay: Postemergence herbicidal evaluation; format: in vivo, Triticum aestivum; conditions: postemergence
Method in brief: as §4

[7] = tested on: ECHORC (Watergrass (Calif.)); assay: Preemergence weed control under flooded paddy conditions; format: in vivo, Echinochloa oryzoides; conditions: rated 3-4 weeks after treatment
Method in brief: as §3

GALAP (Galium) = assay: Postemergence herbicidal evaluation; format: in vivo, Galium aparine; conditions: postemergence
Method in brief: as §4

[8] = tested on: IPOHE (Morningglory, Ivyleaf); assay: Postemergence herbicidal evaluation; format: in vivo, Ipomoea hederacea; conditions: postemergence
Method in brief: as §4

C=CCOC(=O)CC1SC(=Nc2cc(-n3c(=O)cc(C(F)(F)F)n(C)c3=O)c(F)cc2Cl)N(CC=C)C1=O (stereo not drawn) [Compound 65, Allyl 3-allyl-2-{(2-chloro-5-[3,6-dihydro-3-methyl-2,6-dioxo-4-(trifluoromethyl)-1(2H)-pyrimidinyl]-4-fluorophenyl}imino}-4-oxo-5-thiazolidineacetate]
0.0: Preemergence herbicidal rating ZEAMX (ZEAMX (Corn, Field); rate 0.0156 kg/ha) | Preemergence herbicidal rating ZEAMX (ZEAMX (Corn, Field); rate 0.0313 kg/ha) | Preemergence herbicidal rating ECHCG (ECHCG (Barnyardgrass); rate 0.0156 kg/ha) | Preemergence herbicidal rating ECHCG (ECHCG (Barnyardgrass); rate 0.0313 kg/ha) | Preemergence herbicidal rating ECHCG (ECHCG (Barnyardgrass); rate 0.0625 kg/ha) | Preemergence herbicidal rating SETVI (SETVI (Foxtail, Green) [3]; rate 0.0156 kg/ha) | Preemergence herbicidal rating IPOHE ([5]; rate 0.0156 kg/ha) | Preemergence herbicidal rating IPOHE ([5]; rate 0.0313 kg/ha)
6.0: Herbicidal rating ECHORC ([2]; Rate 0.1250 kg/ha) | CYPIR herbicidal effect rating (CYPIR (Rice Flatsedge); 0.0313 kg/ha) | ECHORC herbicidal effect rating ([7]; 0.1250 kg/ha)
4.0: Preemergence herbicidal rating ZEAMX (ZEAMX (Corn, Field); rate 0.2500 kg/ha) | Herbicidal rating SAGPY ([1]; Rate 0.0625 kg/ha) | TRZAWR herbicidal rating ([6]; rate 0.0158 kg/ha)
9.0: Preemergence herbicidal rating SETVI (SETVI (Foxtail, Green) [3]; rate 0.2500 kg/ha) | MOOVA herbicidal effect rating (MOOVA (Monochoria); 0.0313 kg/ha) | MOOVA herbicidal effect rating (MOOVA (Monochoria); 0.0625 kg/ha) | MOOVA herbicidal effect rating (MOOVA (Monochoria); 0.1250 kg/ha) | MOOVA herbicidal effect rating (MOOVA (Monochoria); 0.2500 kg/ha) | SETVI herbicidal rating (SETVI (Foxtail, Green) [4]; rate 0.0630 kg/ha) | Preemergence herbicidal rating ABUTH (ABUTH (Velvetleaf); rate 0.0313 kg/ha) | Preemergence herbicidal rating ABUTH (ABUTH (Velvetleaf); rate 0.0625 kg/ha) | Preemergence herbicidal rating ABUTH (ABUTH (Velvetleaf); rate 0.1250 kg/ha) | Preemergence herbicidal rating ABUTH (ABUTH (Velvetleaf); rate 0.2500 kg/ha) | Preemergence herbicidal rating IPOHE ([5]; rate 0.1250 kg/ha) | GALAP herbicidal rating (GALAP (Galium); rate 0.0630 kg/ha) | IPOHE herbicidal rating ([8]; rate 0.0158 kg/ha) | IPOHE herbicidal rating ([8]; rate 0.0315 kg/ha) | IPOHE herbicidal rating ([8]; rate 0.0630 kg/ha)
5.0: Preemergence herbicidal rating ECHCG (ECHCG (Barnyardgrass); rate 0.2500 kg/ha) | Herbicidal rating SAGPY ([1]; Rate 0.1250 kg/ha) | Herbicidal rating ECHORC ([2]; Rate 0.0313 kg/ha) | Herbicidal rating ECHORC ([2]; Rate 0.0625 kg/ha) | ECHORC herbicidal effect rating ([7]; 0.0313 kg/ha) | ECHORC herbicidal effect rating ([7]; 0.0625 kg/ha) | GALAP herbicidal rating (GALAP (Galium); rate 0.0315 kg/ha)
1.0: Preemergence herbicidal rating ZEAMX (ZEAMX (Corn, Field); rate 0.0625 kg/ha) | Preemergence herbicidal rating SETVI (SETVI (Foxtail, Green) [3]; rate 0.0313 kg/ha) | Preemergence herbicidal rating IPOHE ([5]; rate 0.0625 kg/ha)
2.0: Preemergence herbicidal rating ZEAMX (ZEAMX (Corn, Field); rate 0.1250 kg/ha) | Preemergence herbicidal rating ECHCG (ECHCG (Barnyardgrass); rate 0.1250 kg/ha) | Herbicidal rating SAGPY ([1]; Rate 0.0313 kg/ha) | Preemergence herbicidal rating SETVI (SETVI (Foxtail, Green) [3]; rate 0.0625 kg/ha) | Preemergence herbicidal rating ABUTH (ABUTH (Velvetleaf); rate 0.0156 kg/ha) | GALAP herbicidal rating (GALAP (Galium); rate 0.0158 kg/ha)
7.0: Herbicidal rating SAGPY ([1]; Rate 0.2500 kg/ha) | Herbicidal rating ECHORC ([2]; Rate 0.2500 kg/ha) | Preemergence herbicidal rating SETVI (SETVI (Foxtail, Green) [3]; rate 0.1250 kg/ha) | CYPIR herbicidal effect rating (CYPIR (Rice Flatsedge); 0.0625 kg/ha) | CYPIR herbicidal effect rating (CYPIR (Rice Flatsedge); 0.1250 kg/ha) | SETVI herbicidal rating (SETVI (Foxtail, Green) [4]; rate 0.0158 kg/ha) | SETVI herbicidal rating (SETVI (Foxtail, Green) [4]; rate 0.0315 kg/ha) | Preemergence herbicidal rating IPOHE ([5]; rate 0.2500 kg/ha) | TRZAWR herbicidal rating ([6]; rate 0.0315 kg/ha) | TRZAWR herbicidal rating ([6]; rate 0.0630 kg/ha) | ECHORC herbicidal effect rating ([7]; 0.2500 kg/ha)
8.0: CYPIR herbicidal effect rating (CYPIR (Rice Flatsedge); 0.2500 kg/ha)

C#CCOC(=O)CC1SC(=Nc2cc(-n3c(=O)cc(C(F)(F)F)n(C)c3=O)c(F)cc2Cl)N(CC=C)C1=O (stereo not drawn) [Compound 67, 2-Propynyl 3-allyl-2-{{2-chloro-5-[3,6-dihydro-3-methyl-2,6-dioxo-4-(trifluoromethyl)-1(2H)-pyrimidinyl]-4-fluorophenyl}imino}-4-oxo-5-thiazolidineacetate]
4.0: Herbicidal rating SAGPY ([1]; Rate 0.0625 kg/ha) | Herbicidal rating SAGPY ([1]; Rate 0.1250 kg/ha) | Herbicidal rating ECHORC ([2]; Rate 0.0625 kg/ha) | ECHORC herbicidal effect rating ([7]; 0.0625 kg/ha)
2.9: GALAP herbicidal rating (GALAP (Galium); rate 0.0158 kg/ha)
2.0: Preemergence herbicidal rating IPOHE ([5]; rate 0.0625 kg/ha)
7.0: Preemergence herbicidal rating SETVI (SETVI (Foxtail, Green) [3]; rate 0.2500 kg/ha) | Preemergence herbicidal rating ABUTH (ABUTH (Velvetleaf); rate 0.1250 kg/ha)
5.0: Herbicidal rating ECHORC ([2]; Rate 0.1250 kg/ha) | Herbicidal rating ECHORC ([2]; Rate 0.2500 kg/ha) | CYPIR herbicidal effect rating (CYPIR (Rice Flatsedge); 0.0313 kg/ha) | CYPIR herbicidal effect rating (CYPIR (Rice Flatsedge); 0.0625 kg/ha) | CYPIR herbicidal effect rating (CYPIR (Rice Flatsedge); 0.1250 kg/ha) | TRZAWR herbicidal rating ([6]; rate 0.0158 kg/ha) | ECHORC herbicidal effect rating ([7]; 0.1250 kg/ha) | ECHORC herbicidal effect rating ([7]; 0.2500 kg/ha) | GALAP herbicidal rating (GALAP (Galium); rate 0.0630 kg/ha)
8.0: CYPIR herbicidal effect rating (CYPIR (Rice Flatsedge); 0.2500 kg/ha)
3.0: Preemergence herbicidal rating IPOHE ([5]; rate 0.1250 kg/ha)
1.0: Preemergence herbicidal rating ZEAMX (ZEAMX (Corn, Field); rate 0.0625 kg/ha) | Preemergence herbicidal rating ZEAMX (ZEAMX (Corn, Field); rate 0.1250 kg/ha) | Preemergence herbicidal rating ZEAMX (ZEAMX (Corn, Field); rate 0.2500 kg/ha) | Preemergence herbicidal rating ECHCG (ECHCG (Barnyardgrass); rate 0.1250 kg/ha) | Preemergence herbicidal rating ECHCG (ECHCG (Barnyardgrass); rate 0.2500 kg/ha) | Preemergence herbicidal rating ABUTH (ABUTH (Velvetleaf); rate 0.0156 kg/ha)
0.0: Preemergence herbicidal rating ZEAMX (ZEAMX (Corn, Field); rate 0.0156 kg/ha) | Preemergence herbicidal rating ZEAMX (ZEAMX (Corn, Field); rate 0.0313 kg/ha) | Preemergence herbicidal rating ECHCG (ECHCG (Barnyardgrass); rate 0.0156 kg/ha) | Preemergence herbicidal rating ECHCG (ECHCG (Barnyardgrass); rate 0.0313 kg/ha) | Preemergence herbicidal rating ECHCG (ECHCG (Barnyardgrass); rate 0.0625 kg/ha) | Herbicidal rating SAGPY ([1]; Rate 0.0313 kg/ha) | Herbicidal rating ECHORC ([2]; Rate 0.0313 kg/ha) | Preemergence herbicidal rating SETVI (SETVI (Foxtail, Green) [3]; rate 0.0156 kg/ha) | Preemergence herbicidal rating SETVI (SETVI (Foxtail, Green) [3]; rate 0.0313 kg/ha) | Preemergence herbicidal rating SETVI (SETVI (Foxtail, Green) [3]; rate 0.0625 kg/ha) | Preemergence herbicidal rating IPOHE ([5]; rate 0.0156 kg/ha) | Preemergence herbicidal rating IPOHE ([5]; rate 0.0313 kg/ha) | ECHORC herbicidal effect rating ([7]; 0.0313 kg/ha)
9.0: MOOVA herbicidal effect rating (MOOVA (Monochoria); 0.0313 kg/ha) | MOOVA herbicidal effect rating (MOOVA (Monochoria); 0.0625 kg/ha) | MOOVA herbicidal effect rating (MOOVA (Monochoria); 0.1250 kg/ha) | MOOVA herbicidal effect rating (MOOVA (Monochoria); 0.2500 kg/ha) | SETVI herbicidal rating (SETVI (Foxtail, Green) [4]; rate 0.0158 kg/ha) | SETVI herbicidal rating (SETVI (Foxtail, Green) [4]; rate 0.0315 kg/ha) | SETVI herbicidal rating (SETVI (Foxtail, Green) [4]; rate 0.0630 kg/ha) | Preemergence herbicidal rating ABUTH (ABUTH (Velvetleaf); rate 0.0313 kg/ha) | Preemergence herbicidal rating ABUTH (ABUTH (Velvetleaf); rate 0.0625 kg/ha) | Preemergence herbicidal rating ABUTH (ABUTH (Velvetleaf); rate 0.2500 kg/ha) | IPOHE herbicidal rating ([8]; rate 0.0158 kg/ha) | IPOHE herbicidal rating ([8]; rate 0.0315 kg/ha) | IPOHE herbicidal rating ([8]; rate 0.0630 kg/ha)
6.0: Herbicidal rating SAGPY ([1]; Rate 0.2500 kg/ha) | Preemergence herbicidal rating SETVI (SETVI (Foxtail, Green) [3]; rate 0.1250 kg/ha) | Preemergence herbicidal rating IPOHE ([5]; rate 0.2500 kg/ha) | TRZAWR herbicidal rating ([6]; rate 0.0315 kg/ha) | GALAP herbicidal rating (GALAP (Galium); rate 0.0315 kg/ha)
6.5: TRZAWR herbicidal rating ([6]; rate 0.0630 kg/ha)
